In patent US20250282754A1, “BICYCLIC COMPOUNDS AND THEIR USE AS PEST CONTROL AGENTS” (Pl Industries Ltd., priority 2022, published 2025):

Key:
Nilaparvata lugens = Nilaparvata lugens seedling dip test (paddy seedlings, third instar nymphs); format: in vivo; settings: dead and moribund third instar nymphs 72 h after release, compared to untreated controls, read-out: percent mortality
Description: The seedling dip method was used for testing, wherein the required quantity of the compound was weighed and dissolved in a tube containing a solvent solution. The tube was put on a vortex at 2000 rpm for proper mixing and then diluted with a 0.01% Triton-X solution to the desired test concentration. Paddy seedlings were dipped in the compound solution for 10 seconds, shade dried for 20 min and then the seedlings were placed in glass test tubes with the roots kept in water. 15 third instar nymphs of Nilaparvata lugens were released into each test tube and the tubes were kept in a plant growth chamber at a temperature of 25° C. and relative humidity of 75%. Observations on dead, moribund and alive nymphs were recorded 72 h after the release. Percent mortality was calculated by combining dead and moribund nymphs and comparing the result to the one of the untreated controls. The compounds

Bemisia tabaci = Bemisia tabaci leaf dip test (brinjal leaves, whitefly adults); format: in vivo; settings: foliar, dead and moribund whitefly adults 72 h after release, compared to untreated controls, read-out: percent mortality
Description: The leaf dip method was used for testing, wherein the required quantity of the compound was weighed and dissolved in a tube containing a solvent solution. The tube was put on a vortex at 2000 rpm for proper mixing and then diluted with a 0.01% Triton-X solution to the desired test concentration. Brinjal leaves were dipped in the compound solution for 10 seconds; shade dried for 20 min and then placed, with the abaxial side of the leaf up, on 4 ml of a solidified 1% agar-agar solution in respective container caps. Known numbers of freshly emerged whitefly adults were collected, using a modified aspirator, and released into a perforated container in which the cap containing the treated leaf was placed. The containers were kept in a plant growth chamber at a temperature of 25° C. and relative humidity of 70%. Observations on dead, moribund and alive adults were recorded 72 h after the release. Percent mortality was calculated by combining dead and moribund adults and comparing the result to the one of the untreated controls. The compounds 1 9 11 18 25 28 29 30 31

Row | Structure (SMILES) | mortality at 300 ppm (Nilaparvata lugens) [%] | mortality at 300 ppm (Bemisia tabaci) [%]
1 | CC(C)S(=O)(=Nc1ccc2nn(-c3cccnc3)cc2c1)c1ccc(F)cc1 (centres unmarked) [Compound 38] | ≥ 70 | ≥ 70
2 | CCCCS(=N)(=O)c1ccc2nn(-c3cccnc3)cc2c1 (centres unmarked) [Compound 385, butyl(imino)(2-(pyridin-3-yl)-2H-indazol-5-yl)-λ^6-sulfanone] | ≥ 70 | ≥ 70
3 | N=S(=O)(CC1CC1)c1ccc2nn(-c3cncnc3)cc2c1 (centres unmarked) [Compound 450, (cyclopropylmethyl)(imino)(2-(pyrimidin-5-yl)-2H-indazol-5-yl)-λ^6-sulfanone] | ≥ 70 | ≥ 70
4 | CCCCCS(C)(=O)=Nc1ccc2nn(-c3cncnc3)cc2c1 (centres unmarked) [Compound 33] | ≥ 70 | ≥ 70
5 | CC(C)S(=O)(CCC(F)(F)F)=Nc1cccc2nn(-c3cncc(F)c3)cc12 (centres unmarked) [Compound 104] | ≥ 70 | ≥ 70
6 | Cc1ccc(S(=O)(=Nc2ccc3nn(-c4cccnc4)cc3c2)N(C)C)cc1 (centres unmarked) [Compound 93, N,N,4-trimethyl-N′-(2-(pyridin-3-yl)-2H-indazol-5-yl)benzenesulfonimidamide] | ≥ 70 | ≥ 70
7 | CS(=O)(Cc1ccccc1)=Nc1ccc2nn(-c3cncnc3)cc2c1 (centres unmarked) [Compound 16] | ≥ 70 | 
8 | CS(C)(=O)=Nc1cccc2nn(-c3cncc(F)c3)cc12 [Compound 87] | ≥ 70 | ≥ 70
9 | CS(=O)(=Nc1cnc2nn(-c3cccnc3)cc2c1)c1cccnc1Cl (centres unmarked) [Compound 153] | ≥ 70 | 
10 | CC(=O)N=S(=O)(c1cnc2nn(-c3cncc(F)c3)cc2c1)C(C)C (centres unmarked) [Compound 402] | ≥ 70 | 
11 | CCOc1nn(-c2cccc3nn(-c4cccnc4)cc23)c(=O)n1Cc1ccc(OC(F)(F)F)cc1 [Compound 331, 5-ethoxy-2-(2-(pyridin-3-yl)-2H-indazol-4-yl)-4-(4-(trifluoromethoxy)benzyl)-2,4-dihydro-3H-1,2,4-triazol-3-one] | ≥ 70 | 
12 | COc1nn(-c2ccc3nn(-c4cncc(C)c4)cc3c2)c(=O)n1C [Compound 111, 5-methoxy-4-methyl-2-(2-(5-methylpyridin-3-yl)-2H-indazol-5-yl)-2,4-dihydro-3H-1,2,4-triazol-3-one] | ≥ 70 | 
13 | CS(=O)(=Nc1cnc2nn(-c3cccnc3)cc2c1)c1ncccc1F (centres unmarked) [Compound 152] | ≥ 70 | 
14 | CC(C)S(=O)(=NC(=O)C(F)(F)F)c1ccc2nn(-c3cncnc3)cc2c1 (centres unmarked) [Compound 417] | ≥ 70 | 
15 | CCS(=O)(=NC(C)=O)c1ccc2nn(-c3cncc(F)c3)cc2c1 (centres unmarked) [Compound 462] | ≥ 70 | ≥ 70
16 | CCOc1nn(-c2cccc3nn(-c4cncnc4)cc23)c(=O)n1Cc1ccccc1F [Compound 360, 5-ethoxy-4-(2-fluorobenzyl)-2-(2-(pyrimidin-5-yl)-2H-indazol-4-yl)-2,4-dihydro-3H-1,2,4-triazol-3-one] | ≥ 70 | 
17 | COc1nn(-c2ccc3nn(-c4cccnc4)cc3c2)c(=O)n1Cc1cccc(F)c1 [Compound 126, 4-(3-fluorobenzyl)-5-methoxy-2-(2-(pyridin-3-yl)-2H-indazol-5-yl)-2,4-dihydro-3H-1,2,4-triazol-3-one] | ≥ 70 | ≥ 70
18 | CCN=S(=O)(CC)c1ccc2nn(-c3cccnc3)cc2c1 (centres unmarked) [Compound 391] | ≥ 70 | ≥ 70
19 | CS(C)(=O)=Nc1ccc(Cl)c2nn(-c3cncc(F)c3)cc12 [Compound 202] | ≥ 70 | 
20 | CCCCCS(C)(=O)=Nc1ccc2nn(-c3cncc(F)c3)cc2c1 (centres unmarked) [Compound 42] | ≥ 70 | 
21 | COc1nn(-c2ccc3nn(-c4cccnc4)cc3c2)c(=O)n1C1CC1 [Compound 127, 4-cyclopropyl-5-methoxy-2-(2-(pyridin-3-yl)-2H-indazol-5-yl)-2,4-dihydro-3H-1,2,4-triazol-3-one] | ≥ 70 | 
22 | CC(=O)N=S(C)(=O)c1ccc2nn(-c3cncnc3)cc2c1 (centres unmarked) [Compound 475] | ≥ 70 | ≥ 70
23 | CCS(=O)(=Nc1ccnc(C)c1)c1ccc2nn(-c3cncc(F)c3)cc2c1 (centres unmarked) [Compound 464] | ≥ 70 | 
24 | CCCS(=O)(CCC)=Nc1cccc2nn(-c3cccnc3)cc12 [Compound 78] | ≥ 70 | ≥ 70

Row | Structure (SMILES) | mortality at 300 ppm (Nilaparvata lugens) [%] | mortality at 300 ppm (Bemisia tabaci) [%]
25 | CS(C)(=O)=Nc1ccc2nn(-c3cncnc3)cc2c1 [Compound 9] | ≥ 70 | ≥ 70
26 | CCS(C)(=O)=Nc1ccc2nn(-c3cncc(F)c3)cc2c1 (centres unmarked) [Compound 5] | ≥ 70 | 
27 | COc1nn(-c2ccc3nn(-c4cccnc4)c(Cl)c3c2)c(=O)n1C [Compound 347, 2-(3-chloro-2-(pyridin-3-yl)-2H-indazol-5-yl)-5-methoxy-4-methyl-2,4-dihydro-3H-1,2,4-triazol-3-one] | ≥ 70 | 
28 | CS(=O)(=Nc1ccc2nn(-c3cccnc3)cc2c1)c1cccnc1 (centres unmarked) [Compound 30] | ≥ 70 | ≥ 70
29 | CS(=O)(=Nc1ccc2nn(-c3cncc(F)c3)cc2c1)c1ccccc1 (centres unmarked) [Compound 14] | ≥ 70 | 
30 | CC(C)CS(=O)(CC(C)C)=Nc1ccc2nn(-c3cncnc3)c(Cl)c2c1 [Compound 181] | ≥ 70 | 
31 | COc1nn(-c2ccc3nn(-c4ccc(C)nc4)cc3c2)c(=O)n1C [Compound 115, 5-methoxy-4-methyl-2-(2-(6-methylpyridin-3-yl)-2H-indazol-5-yl)-2,4-dihydro-3H-1,2,4-triazol-3-one] | ≥ 70 | 
32 | CCCCS(=O)(CC)=Nc1ccc2nn(-c3cncc(F)c3)c(Cl)c2c1 (centres unmarked) [Compound 194] | ≥ 70 | 
33 | Cc1ccc(S(C)(=O)=Nc2ccc3nn(-c4cccnc4)cc3c2)cc1 (centres unmarked) [Compound 23] | ≥ 70 | 
34 | COc1nn(-c2ccc3nn(-c4cnccc4C)cc3c2)c(=O)n1C [Compound 114, 5-methoxy-4-methyl-2-(2-(4-methylpyridin-3-yl)-2H-indazol-5-yl)-2,4-dihydro-3H-1,2,4-triazol-3-one] | ≥ 70 | 
35 | CC(C)S(=O)(=NC#N)c1ccc2nn(-c3cccnc3)cc2c1 (centres unmarked) [Compound 392, N-(isopropyl(oxo)(2-(pyridin-3-yl)-2H-indazol-5-yl)-λ^6-sulfaneylidene)cyanamide] | ≥ 70 | 
36 | CS(=O)(=Nc1ccc2nn(-c3cccnc3)cc2c1)c1ccc(Cl)cc1 (centres unmarked) [Compound 26] | ≥ 70 | 
37 | CCOc1nn(-c2cccc3nn(-c4cccnc4)cc23)c(=O)n1Cc1ccc(F)cc1 [Compound 343, 5-ethoxy-4-(4-fluorobenzyl)-2-(2-(pyridin-3-yl)-2H-indazol-4-yl)-2,4-dihydro-3H-1,2,4-triazol-3-one] | ≥ 70 | 
38 | COc1nn(-c2cccc3nn(-c4cccnc4)cc23)c(=O)n1Cc1ccccc1F [Compound 356, 4-(2-fluorobenzyl)-5-methoxy-2-(2-(pyridin-3-yl)-2H-indazol-4-yl)-2,4-dihydro-3H-1,2,4-triazol-3-one] | ≥ 70 | 
39 | CCN=S(=O)(CC1CCC1)c1ccc2nn(-c3cncc(F)c3)cc2c1 (centres unmarked) [Compound 471, (cyclobutylmethyl)(ethylimino)(2-(5-fluoropyridin-3-yl)-2H-indazol-5-yl)-λ^6-sulfanone] | ≥ 70 | 
40 | CCCCCS(C)(=O)=Nc1ccc2nn(-c3cccnc3)cc2c1 (centres unmarked) [Compound 27] | ≥ 70 | 
41 | Cc1ccc(S(C)(=O)=Nc2ccc3nn(-c4cncc(F)c4)cc3c2)cc1 (centres unmarked) [Compound 51] | ≥ 70 | 
42 | CCS(=O)(=NC(=O)c1ccc2nn(-c3cccnc3)cc2c1)C(C)C (centres unmarked) [Compound 105, N-(ethyl(isopropyl)(oxo)-λ^6-sulfaneylidene)-2-(pyridin-3-yl)-2H-indazole-5-carboxamide] | ≥ 70 | 
43 | N=S(=O)(CC1CC1)c1ccc2nn(-c3cccnc3)c(Cl)c2c1 (centres unmarked) [Compound 454, (3-chloro-2-(pyridin-3-yl)-2H-indazol-5-yl)(cyclopropylmethyl)(imino)-λ^6-sulfanone] | ≥ 70 | 
44 | COc1nn(-c2cccc3nn(-c4cncnc4)cc23)c(=O)n1Cc1ccccc1F [Compound 357, 4-(2-fluorobenzyl)-5-methoxy-2-(2-(pyrimidin-5-yl)-2H-indazol-4-yl)-2,4-dihydro-3H-1,2,4-triazol-3-one] | ≥ 70 | 
45 | CS(C)(=O)=Nc1ccc2nn(-c3cncc(F)c3)cc2c1 [Compound 8] | ≥ 70 | 
46 | CS(=O)(Cc1ccccc1)=Nc1ccc2nn(-c3cncc(F)c3)cc2c1 (centres unmarked) [Compound 13] | ≥ 70 | 
47 | COc1nn(-c2ccc3nn(-c4cccnc4)cc3c2)c(=O)n1Cc1ccccc1Cl [Compound 367, 4-(2-chlorobenzyl)-5-methoxy-2-(2-(pyridin-3-yl)-2H-indazol-5-yl)-2,4-dihydro-3H-1,2,4-triazol-3-one] | ≥ 70 | 
48 | CC(C)S(C)(=O)=Nc1ccc(Cl)c2nn(-c3cncc(F)c3)cc12 (centres unmarked) [Compound 206] | ≥ 70 | 
